# Reference: PubChem BioAssay AID1259407 (Chemical Carcinogenesis Research Information System (CCRIS), 2018)
# The source made the active and inactive calls. No rule for the calls is given here.
# System: CCRIS mutagenicity, Ames/micronucleus/aberration tests
# Experiment: CCRIS mutagenicity studies
# [1] = Test System: AMES SALMONELLA TYPHIMURIUM, Strain/Indicator: TA98, Metabolic Activation: NONE, Method: STANDARD PLATE
# [2] = Test System: AMES SALMONELLA TYPHIMURIUM, Strain/Indicator: TA98, Metabolic Activation: RAT, LIVER, S-9, AROCLOR 1254, Method: STANDARD PLATE
# [3] = Test System: AMES SALMONELLA TYPHIMURIUM, Strain/Indicator: TA100, Metabolic Activation: NONE, Method: STANDARD PLATE
# [4] = Test System: AMES SALMONELLA TYPHIMURIUM, Strain/Indicator: TA100, Metabolic Activation: RAT, LIVER, S-9, AROCLOR 1254, Method: STANDARD PLATE
# [5] = Test System: AMES SALMONELLA TYPHIMURIUM, Strain/Indicator: TA1535, Metabolic Activation: NONE, Method: STANDARD PLATE
# [6] = Test System: AMES SALMONELLA TYPHIMURIUM, Strain/Indicator: TA1535, Metabolic Activation: RAT, LIVER, S-9, AROCLOR 1254, Method: STANDARD PLATE
# [7] = Test System: AMES SALMONELLA TYPHIMURIUM, Strain/Indicator: TA1537, Metabolic Activation: NONE, Method: STANDARD PLATE
# [8] = Test System: AMES SALMONELLA TYPHIMURIUM, Strain/Indicator: TA1537, Metabolic Activation: RAT, LIVER, S-9, AROCLOR 1254, Method: STANDARD PLATE
# [9] = Test System: AMES SALMONELLA TYPHIMURIUM, Strain/Indicator: TA98, Metabolic Activation: NONE, Method: PREINCUBATION
# [10] = Test System: AMES SALMONELLA TYPHIMURIUM, Strain/Indicator: TA100, Metabolic Activation: NONE, Method: PREINCUBATION
# [11] = Test System: MOUSE LYMPHOMA, Strain/Indicator: L5178Y (TK+/TK-), Metabolic Activation: NONE, Method: SUSPENSION/PLATE
structure (smiles),measurement,setting,value
CN(C)Nc1nc(-c2ccc([N+](=O)[O-])o2)cs1,mutagenic call,"Test System: AMES SALMONELLA TYPHIMURIUM, Strain/Indicator: TA100, Metabolic Activation: RAT, LIVER, S-9, KC500 OR PHENOBARBITAL, Method: LIQUID SUSPENSION",active; positive
same,mutagenic call,"Test System: E. COLI WP2, Strain/Indicator: WP2, Metabolic Activation: NONE, Method: SPOT",active; positive
Cc1ccc(OS(=O)(=O)c2cccc3cccnc23)c([N+](=O)[O-])c1,mutagenic call,[1],active; positive
same,mutagenic call,[2],active; positive
same,mutagenic call,[3],active; positive
same,mutagenic call,[4],active; positive
same,mutagenic call,[5],inactive; negative
same,mutagenic call,[6],inactive; negative
same,mutagenic call,[7],active; positive
same,mutagenic call,[8],active; positive
O=[N+]([O-])c1ccc(CO)c([N+](=O)[O-])c1,mutagenic call,[9],active; positive
same,mutagenic call,"Test System: AMES SALMONELLA TYPHIMURIUM, Strain/Indicator: TA98, Metabolic Activation: RAT, LIVER, S-9, AROCLOR, Method: PREINCUBATION",active; positive
same,mutagenic call,"Test System: AMES SALMONELLA TYPHIMURIUM, Strain/Indicator: TA98, Metabolic Activation: RAT, LIVER, S-9, PHENOBARBITAL AND 5,6-BENZOFLAVONE, Method: PREINCUBATION",active; positive
same,mutagenic call,[10],active; positive
same,mutagenic call,"Test System: AMES SALMONELLA TYPHIMURIUM, Strain/Indicator: TA100, Metabolic Activation: RAT, LIVER, S-9, PHENOBARBITAL AND 5,6-BENZOFLAVONE, Method: PREINCUBATION",active; positive
Cc1cc2ncccc2c2ncn(C)c12,mutagenic call,[9],inactive; negative
same,mutagenic call,"Test System: AMES SALMONELLA TYPHIMURIUM, Strain/Indicator: TA98, Metabolic Activation: RAT, LIVER, S-9, AROCLOR 1254, Method: PREINCUBATION",inactive; negative
same,mutagenic call,[10],inactive; negative
same,mutagenic call,"Test System: AMES SALMONELLA TYPHIMURIUM, Strain/Indicator: TA100, Metabolic Activation: RAT, LIVER, S-9, AROCLOR 1254, Method: PREINCUBATION",inactive; negative
Oc1cc(Cl)c(O)cc1Cl,mutagenic call,"Test System: AMES SALMONELLA TYPHIMURIUM, Strain/Indicator: TA98, Metabolic Activation: NONE",inactive; negative
same,mutagenic call,"Test System: AMES SALMONELLA TYPHIMURIUM, Strain/Indicator: TA98, Metabolic Activation: RAT, LIVER, S-9, AROCLOR 1254",inactive; negative
same,mutagenic call,"Test System: AMES SALMONELLA TYPHIMURIUM, Strain/Indicator: TA100, Metabolic Activation: NONE",inactive; negative
same,mutagenic call,"Test System: AMES SALMONELLA TYPHIMURIUM, Strain/Indicator: TA100, Metabolic Activation: RAT, LIVER, S-9, AROCLOR 1254",inactive; negative
same,mutagenic call,"Test System: AMES SALMONELLA TYPHIMURIUM, Strain/Indicator: TA102, Metabolic Activation: NONE",inactive; negative
same,mutagenic call,"Test System: AMES SALMONELLA TYPHIMURIUM, Strain/Indicator: TA102, Metabolic Activation: RAT, LIVER, S-9, AROCLOR 1254",inactive; negative
same,mutagenic call,"Test System: AMES SALMONELLA TYPHIMURIUM, Strain/Indicator: TA104, Metabolic Activation: NONE",inactive; negative
same,mutagenic call,"Test System: AMES SALMONELLA TYPHIMURIUM, Strain/Indicator: TA104, Metabolic Activation: RAT, LIVER, S-9, AROCLOR 1254",inactive; negative
CC(C)CCON=O,mutagenic call,"End Point: IN VITRO CHROMOSOMAL ABERRATIONS, Test System: CHINESE HAMSTER OVARY CELLS, Metabolic Activation: NONE",active; positive
same,mutagenic call,"End Point: IN VITRO CHROMOSOMAL ABERRATIONS, Test System: CHINESE HAMSTER OVARY CELLS, Metabolic Activation: RAT, LIVER, S-9, AROCLOR 1254",inactive; negative
same,mutagenic call,"Test System: AMES SALMONELLA TYPHIMURIUM, Strain/Indicator: TA98, Metabolic Activation: HAMSTER, LIVER, S-9, AROCLOR 1254, Method: STANDARD PLATE",inactive; negative
same,mutagenic call,[1],inactive; negative
same,mutagenic call,[2],inactive; negative
same,mutagenic call,"Test System: AMES SALMONELLA TYPHIMURIUM, Strain/Indicator: TA100, Metabolic Activation: HAMSTER, LIVER, S-9, AROCLOR 1254, Method: STANDARD PLATE",inactive; negative
same,mutagenic call,[3],inactive; negative
same,mutagenic call,[4],inactive; negative
same,mutagenic call,"Test System: AMES SALMONELLA TYPHIMURIUM, Strain/Indicator: TA1535, Metabolic Activation: HAMSTER, LIVER, S-9, AROCLOR 1254, Method: STANDARD PLATE",active; positive
same,mutagenic call,[5],active; positive
same,mutagenic call,[6],active; positive
same,mutagenic call,"Test System: AMES SALMONELLA TYPHIMURIUM, Strain/Indicator: TA1537, Metabolic Activation: HAMSTER, LIVER, S-9, AROCLOR 1254, Method: STANDARD PLATE",inactive; negative
same,mutagenic call,[7],inactive; negative
same,mutagenic call,[8],inactive; negative
same,mutagenic call,[11],active; positive
same,mutagenic call,"Test System: MOUSE LYMPHOMA, Strain/Indicator: L5178Y (TK+/TK-), Metabolic Activation: RAT, LIVER, S-9, AROCLOR 1254, Method: SUSPENSION/PLATE",active; positive
O=C[C@H](O)[C@@H](O)[C@H](O)[C@H](O)CO,mutagenic call,"Test System: AMES SALMONELLA TYPHIMURIUM, Strain/Indicator: TA98, Metabolic Activation: RAT LIVER S-9, CHLOROPHENE, Method: STANDARD PLATE (COMPOUND HEATED AT 250 DEGREES CELSIUS FOR 20 MIN)",inactive; negative
same,mutagenic call,[11],active; positive
ONc1ccc(-c2ccccc2)cc1,mutagenic call,"Test System: AMES SALMONELLA TYPHIMURIUM, Strain/Indicator: TA98(1,8-DNP6), Metabolic Activation: NONE, Method: PREINCUBATION",active; positive
same,mutagenic call,[9],active; positive
same,mutagenic call,[1],active; positive
same,mutagenic call,"Test System: AMES SALMONELLA TYPHIMURIUM, Strain/Indicator: TA98, Metabolic Activation: S-9, Method: STANDARD PLATE",active; positive
same,mutagenic call,[3],active; positive
same,mutagenic call,"Test System: AMES SALMONELLA TYPHIMURIUM, Strain/Indicator: TA100, Metabolic Activation: S-9, Method: STANDARD PLATE",active; positive
same,mutagenic call,[5],inactive; negative
same,mutagenic call,"Test System: AMES SALMONELLA TYPHIMURIUM, Strain/Indicator: YG1024, Metabolic Activation: NONE, Method: PREINCUBATION",active; positive
same,mutagenic call,"Test System: E. COLI, Strain/Indicator: WP2, Metabolic Activation: NONE, Method: PREINCUBATION",active; positive
same,mutagenic call,"Test System: E. COLI, Strain/Indicator: WP2 UVRA(P), Metabolic Activation: NONE, Method: STANDARD PLATE",active; positive
same,mutagenic call,"Test System: E. COLI, Strain/Indicator: WP2 UVRA, Metabolic Activation: NONE, Method: FLUCTUATION TEST",active; positive
same,mutagenic call,"Test System: E. COLI, Strain/Indicator: WP2 UVRA, Metabolic Activation: NONE, Method: PREINCUBATION",active; positive
same,mutagenic call,"Test System: E. COLI, Strain/Indicator: WP2 UVRA, Metabolic Activation: NONE, Method: STANDARD PLATE",active; positive
CN(C)CCNC(=O)c1ccc2c(N)c3ccccc3nc2c1,mutagenic call,[7],inactive; negative
CC(C)(Br)C(Br)COP(=O)(OCC(Br)C(C)(C)Br)OCC(Br)C(C)(C)Br (stereo not drawn),mutagenic call,"Test System: AMES SALMONELLA TYPHIMURIUM, Strain/Indicator: TA100, Metabolic Activation: RAT, LIVER, MICROSOMES, PHENOBARBITAL, Method: PREINCUBATION",inactive; negative
same,mutagenic call,"Test System: AMES SALMONELLA TYPHIMURIUM, Strain/Indicator: TA100, Metabolic Activation: RAT, LIVER, MICROSOMES, Method: PREINCUBATION",inactive; negative
O=C(c1ccc([N+](=O)[O-])cc1)[C@@H]1O[C@@H]1c1ccccc1,mutagenic call,[1],inactive; negative
same,mutagenic call,[2],inactive; negative
same,mutagenic call,[3],active; positive
same,mutagenic call,[4],active; positive
CCNc1nc(N)nc(Cl)n1,mutagenic call,"Test System: AMES SALMONELLA TYPHIMURIUM, Strain/Indicator: TA97, Metabolic Activation: NONE, Method: STANDARD PLATE",inactive; negative
same,mutagenic call,[1],inactive; negative
same,mutagenic call,[3],inactive; negative
